Measured values from paper PMC3900303 (Toxicology and applied pharmacology, 2013).
Read-outs that look alike come from different tables or passages of the source. One block for each compound: values may come before it.

Key:
[1] = system: Human iPSC-derived cardiomyocytes; test: High-throughput cardiomyocyte beating assay; details: for effect on beating parameters at 30 minutes: 30 min exposure; for impact on the shape of the peaks: compounds known to prolong the QT interval; for chronotrope effect / effect on the beating rate / beat rate / effect on spacing between peaks and regularity: general clustering analysis of concentration-response; for effect on the beating rate / beat rate: 3 nM to 30 μM; for effect on beating: at 3 μM; for hormesis-like concentration effect on beating rate: low vs high concentrations
[2] = system: Human iPSC-derived cardiomyocytes
[3] = system: Human iPSC-derived cardiomyocytes; test: Cell viability imaging; assay type: cell-based; details: evaluated 24 hrs after treatment

effect on beating parameters at 30 minutes [1]: did not have an effect
Compound: O=c1[nH]cc(F)c(=O)[nH]1 [5-fluoracil]

chronotrope effect [1]: negative chronotrope effect
Compound: CCCCc1oc2ccccc2c1C(=O)c1cc(I)c(OCCN(CC)CC)c(I)c1 [amiodarone]
impact on the shape of the peaks [1]: profound impact

effect on the beating rate / beat rate [1]: strongly inhibited
Compound: COc1ccc(CCN2CCC(Nc3nc4ccccc4n3Cc3ccc(F)cc3)CC2)cc1 [astemizol]

effect on the beating rate / beat rate [1]: strongly inhibited
Compound: CC(C)COCC(CN(Cc1ccccc1)c1ccccc1)N1CCCC1 (stereo not drawn) [bepridil]

beating profile ([1]; multi-parametric peak pattern): appearance of wide peaks
Compound: CCCCN1CCCCC1C(=O)Nc1c(C)cccc1C (stereo not drawn) [bupivacaine]

Compound: N.N.[Cl][Pt][Cl] [cisplatin, cis-diamineplatinum(II)dichloride]
effect on beating parameters at 30 minutes [2]: did not have an effect

effect on beating parameters at 30 minutes [1]: did not have an effect
Compound: COc1cccc2c1C(=O)c1c(O)c3c(c(O)c1C2=O)C[C@@](O)(C(C)=O)C[C@@H]3O[C@H]1C[C@H](N)[C@H](O)[C@H](C)O1 [daunorubicin]

Compound: CNCCCN1c2ccccc2CCc2ccccc21 [desipramine]
impact on the shape of the peaks [1]: profound impact

effect on beating parameters at 30 minutes [1]: did not have an effect
Compound: O=C(O)Cc1ccccc1Nc1c(Cl)cccc1Cl [diclofenac]

Compound: C[C@H]1O[C@@H](O[C@H]2[C@@H](O)C[C@H](O[C@H]3[C@@H](O)C[C@H](O[C@H]4CC[C@@]5(C)[C@H](CC[C@@H]6[C@@H]5CC[C@]5(C)[C@@H](C7=CC(=O)OC7)CC[C@]65O)C4)O[C@@H]3C)O[C@@H]2C)C[C@H](O)[C@@H]1O [digitoxin]
effect on beating [1]: blocked beating completely

effect on beating [1]: blocked beating completely
Compound: C[C@H]1O[C@@H](O[C@H]2[C@@H](O)C[C@H](O[C@H]3[C@@H](O)C[C@H](O[C@H]4CC[C@@]5(C)[C@H](CC[C@@H]6[C@@H]5C[C@@H](O)[C@]5(C)[C@@H](C7=CC(=O)OC7)CC[C@]65O)C4)O[C@@H]3C)O[C@@H]2C)C[C@H](O)[C@@H]1O [digoxin]
hormesis-like concentration effect on beating rate [1]: increased at low concentrations, but decreased or completely stopped at high doses

effect on the beating rate / beat rate [1]: strongly inhibited
Compound: COc1ccc([C@@H]2Sc3ccccc3N(CCN(C)C)C(=O)[C@@H]2OC(C)=O)cc1 [diltiazem]

effect on the beat rate ([1]; 30 min exposure time-point): no effect
effect on the peak shape parameters ([1]; 30 min exposure time-point (Figure 2)): clear concentration-dependent effect
effect on spacing between peaks and regularity [1]: affected
effect on the beating rate / beat rate [1]: little effect
Compound: CC(C)N(CCC(C(N)=O)(c1ccccc1)c1ccccn1)C(C)C (stereo not drawn) [disopyramide]
effect on cell viability [3]: No effect
impact on the shape of the peaks [1]: profound impact

effect on beating parameters at 30 minutes [1]: did not have an effect
Compound: COc1cccc2c1C(=O)c1c(O)c3c(c(O)c1C2=O)C[C@@](O)(C(=O)CO)C[C@@H]3O[C@H]1C[C@H](N)[C@H](O)[C@H](C)O1 [doxorubicin]

effect on spacing between peaks and regularity [1]: affected
effect on the beating rate / beat rate [1]: little effect
Compound: CC(=O)O.O=C(NCC1CCCCN1)c1cc(OCC(F)(F)F)ccc1OCC(F)(F)F (stereo not drawn) [flecainid acetate]

effect on beating parameters at 30 minutes [1]: did not have an effect
Compound: CC(C)Cc1ccc(C(C)C(=O)O)cc1 (stereo not drawn) [ibuprofen]

Compound: CN(C)CCCN1c2ccccc2CCc2ccccc21 [imipramine]
impact on the shape of the peaks [1]: profound impact

chronotrope effect [1]: positive chronotrope effect
Compound: CC(C)NCC(O)c1ccc(O)c(O)c1 (stereo not drawn) [isoproterenol]

Compound: CCN(CC)CC(=O)Nc1c(C)cccc1C [lidocaine]
effect on spacing between peaks and regularity [1]: affected
effect on the beating rate / beat rate [1]: little effect

effect on beating parameters at 30 minutes [1]: did not have an effect
Compound: Cc1cnc(NC(=O)C2=C(O)c3ccccc3S(=O)(=O)N2C)s1 [meloxicam]

effect on the beating rate / beat rate [1]: strongly inhibited
Compound: COC(=O)C1=C(C)NC(C)=C(C(=O)OCCN(C)Cc2ccccc2)C1c1cccc([N+](=O)[O-])c1 (stereo not drawn) [nicardipine]

chronotrope effect [1]: negative chronotrope effect
Compound: CC(C)NCC(O)COc1cccc2[nH]ccc12 (stereo not drawn) [pindolol]

effect on beating parameters at 30 minutes [1]: did not have an effect
Compound: CCc1ccc(CCOc2ccc(CC3SC(=O)NC3=O)cc2)nc1 (stereo not drawn) [pioglitazone]

Compound: CCN(CC)CCNC(=O)c1ccc(N)cc1 [procainamide]
impact on the shape of the peaks [1]: profound impact

Compound: C=C[C@H]1C[N@@]2CC[C@H]1C[C@@H]2[C@@H](O)c1ccnc2ccc(OC)cc12 [quinidine]
impact on the shape of the peaks [1]: profound impact

effect on beating parameters at 30 minutes [1]: did not have an effect
Compound: CS(=O)(=O)c1ccc(C2=C(c3ccccc3)C(=O)OC2)cc1 [rofecoxib]

effect on beating parameters at 30 minutes [1]: did not have an effect
Compound: CN(CCOc1ccc(CC2SC(=O)NC2=O)cc1)c1ccccn1 (stereo not drawn) [rosiglitazone]

Compound: OCc1cc(C(O)CNCCCCCCOCCCCc2ccccc2)ccc1O (stereo not drawn) [salmeterol]
hormesis-like concentration effect on beating rate [1]: increased at low concentrations, but decreased or completely stopped at high doses

Compound: CC(C)NCC(O)c1ccc(NS(C)(=O)=O)cc1 (stereo not drawn) [sotalol]
impact on the shape of the peaks [1]: profound impact

effect on the beating rate / beat rate [1]: strongly inhibited
Compound: CC(C)(C)c1ccc(C(O)CCCN2CCC(C(O)(c3ccccc3)c3ccccc3)CC2)cc1 (stereo not drawn) [terfenadine]
